Values quoted from earlier work in patent publication US20140051737A1, “METHODS FOR THE TREATMENT AND DIAGNOSTIC OF PULMONARY ARTERIAL HYPERTENSION” (UNIVERSITE LAVAL, priority 2011, published 2014).

System: patients carrying the BRCA1 or BRCA2 mutation
Details: cited from earlier work

SMILES: O=C(c1cc(Cc2n[nH]c(=O)c3ccccc23)ccc1F)N1CCN(C(=O)C2CC2)CC1 [olaparib]
- objective antitumor activity: only showed objective antitumor activity in patients carrying the BRCA1 or BRCA2 mutation
